According to article PMC2894858 (PLoS ONE, 2010):
Like-named read-outs stand apart in the source and are kept apart here. Non-standard residues stand in square brackets, D forms with d. Residues, ends and D or L forms follow the SMILES beside them. Aib = CC(C)(N)C(=O)O

What was measured:
BoNT/A LC [1] = molecular target: T1, BoNT/A LC (Clostridium botulinum, UniProt P0DPI0); details: cited from earlier work; for IC50: read-out: Reported Ki (cell: IC50)
BoNT/A LC [2] = molecular target: T1, BoNT/A LC; assay: biochemical; assay type: biochemical; details: for Ki range in words: pH 7.3
Target sequence in this assay (P0DPI0 2-448 limits assumed): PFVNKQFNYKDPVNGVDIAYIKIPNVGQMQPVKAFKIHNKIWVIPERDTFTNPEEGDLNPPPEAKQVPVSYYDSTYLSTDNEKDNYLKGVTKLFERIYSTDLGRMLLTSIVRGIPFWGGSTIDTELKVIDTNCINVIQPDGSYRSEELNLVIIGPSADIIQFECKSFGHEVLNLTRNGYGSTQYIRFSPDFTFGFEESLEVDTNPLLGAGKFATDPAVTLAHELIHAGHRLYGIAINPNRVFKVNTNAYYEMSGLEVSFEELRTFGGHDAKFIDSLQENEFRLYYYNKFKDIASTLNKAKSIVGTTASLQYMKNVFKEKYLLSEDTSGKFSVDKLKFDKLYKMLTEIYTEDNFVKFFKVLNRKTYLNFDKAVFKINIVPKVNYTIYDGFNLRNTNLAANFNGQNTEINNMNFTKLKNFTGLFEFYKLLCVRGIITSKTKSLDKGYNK

Compound	IC50 (BoNT/A LC [1])	Ki range in words (BoNT/A LC [2])	Ki (BoNT/A LC [2])	further results
QRATKM	133 µM	–	–	Ki (BoNT/A LC [1]): 133 µM
NC(N)=NCCC[C@H](N)C(=O)NO [ArgHX, arginine hydroxamate]	60 µM	–	–	–
Fmoc-L-Leu-OH (0.124 g, 0.350 mmol, 3.50 equiv), Fmoc-L-Met-OH (0.130 g, 0.350 mmol, 3.50 equiv), Fmoc-L-Ala-OH (0.115 g, 0.350 mmol, 3.50 equiv), Fmoc-Aib-OH (0.114 g, 0.350 mmol, 3.50 equiv), Fmoc-L-1-Nal-OH (0.153 g, 0.350 mmol, 3.50 equiv), Fmoc-L-Arg(Pbf)-OH (0.227 g, 0.350 mmol, 3.50 equiv), Fmoc-L-Arg(Pbf)-OH (0.227 g, 0.350 mmol, 3.50 equiv) [JTH-NB72-35]	–	nM range	–	potency compared with I1 (BoNT/A LC [2]): none of them were as potent as I1; potency rank among the three reported PLMs (BoNT/A LC [2]): the most potent of the three reported PLMs
O=C(/C=C/c1ccc(Cl)cc1)NO [4-chlorocinnamic hydroxamate]	15 µM	–	–	–
CSCC[C@H](NC(=O)[C@H](C)NC(=O)C(C)(C)NC(=O)[C@H](Cc1ccccc1)NC(=O)[C@H](CCCNC(=N)N)NC(=O)[C@@H](N)CCCNC(=N)N)C(=O)N[C@@H](CC(C)C)C(N)=O [JTH-NB72-39] (H-RRF[Aib]AML-NH2)	–	nM range	0.638 ± 0.092 µM	–
CSCC[C@H](NC(=O)[C@H](C)NC(=O)C(C)(C)NC(=O)[C@H](Cc1c[nH]c2ccccc12)NC(=O)[C@H](CCCNC(=N)N)NC(=O)[C@@H](N)CCCNC(=N)N)C(=O)N[C@@H](CC(C)C)C(N)=O [JTH-NB72-38] (H-RRW[Aib]AML-NH2)	–	nM range	0.991 ± 0.117 µM	–
